Read-outs that look alike come from different tables or passages of the source.
Assays:
Type in all cases: cell-based
[1] = molecular target: T1, GIRK channel (Homo sapiens, UniProt P48051+P48549); assay: Receptor-independent effect on GIRK channels in oocytes expressing the GIRK channel but not the CB1 receptor; conditions: for effect of application on GIRK currents: 10 µM, oocyte expressing the GIRK channel only; for direct effect on the GIRK channel: oocytes without CB1 receptor, any membrane potential
T1 construct: expressed in transfected cells; host or cells: Xenopus laevis oocytes injected with cRNA
T1 sequence (P48549 1-501): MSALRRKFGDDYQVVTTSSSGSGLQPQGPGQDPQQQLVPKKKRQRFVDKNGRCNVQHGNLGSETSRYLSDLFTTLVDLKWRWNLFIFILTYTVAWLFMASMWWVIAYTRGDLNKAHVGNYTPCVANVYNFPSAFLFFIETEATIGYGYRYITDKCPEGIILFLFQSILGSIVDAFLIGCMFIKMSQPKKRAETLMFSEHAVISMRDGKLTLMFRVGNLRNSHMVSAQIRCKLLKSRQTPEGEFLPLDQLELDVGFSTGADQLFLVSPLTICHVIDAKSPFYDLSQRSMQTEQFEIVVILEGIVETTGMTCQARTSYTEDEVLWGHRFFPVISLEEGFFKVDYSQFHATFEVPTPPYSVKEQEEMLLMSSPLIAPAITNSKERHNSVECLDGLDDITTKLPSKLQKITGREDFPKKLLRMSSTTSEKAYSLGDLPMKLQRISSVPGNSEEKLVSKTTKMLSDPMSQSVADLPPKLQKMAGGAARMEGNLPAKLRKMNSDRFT
T1 sequence (P48051 1-423): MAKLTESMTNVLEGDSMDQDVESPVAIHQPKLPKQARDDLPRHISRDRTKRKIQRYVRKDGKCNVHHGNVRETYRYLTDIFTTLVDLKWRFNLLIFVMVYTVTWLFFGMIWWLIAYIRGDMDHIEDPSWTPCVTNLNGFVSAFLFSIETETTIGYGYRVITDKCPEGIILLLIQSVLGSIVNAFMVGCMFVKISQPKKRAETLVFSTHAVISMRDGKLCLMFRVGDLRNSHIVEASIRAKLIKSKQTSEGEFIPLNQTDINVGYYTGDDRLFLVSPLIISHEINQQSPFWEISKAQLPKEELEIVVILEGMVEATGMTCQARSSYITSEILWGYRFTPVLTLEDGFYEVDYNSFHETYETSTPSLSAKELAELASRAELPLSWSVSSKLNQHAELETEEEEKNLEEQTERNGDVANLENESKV
Protocol: Figure S1. […] (A) A representative recording from an oocyte expressing the GIRK channel. […] (B) Current -Voltage (I-V) curve of IK before (black) and after (red) the application of 2-AG. The oocytes were voltage clamped to -80 mV and the currents after depolarizing pulses to various holding potentials from –80 mV to +40 mV at 10 mV increments were measured. Data is mean ± SEM from 7 oocytes. The difference between the two conditions is not significant (paired t-test, p>0.11 for all voltages).
(§1) Figure S2. Effect of AEA on GIRK channels. (A) A representative recording from an oocyte expressing the GIRK channel. […] (B) Current-voltage I-V curve of IK before (black) and after (red) the application of AEA. The oocytes were voltage clamped to -80 mV and the currents after depolarizing pulses to various holding potentials from –80 mV to +40 mV at 10 mV increments were measured. Data is mean ± SEM from 7 oocytes. The difference between the two conditions is not significant (paired t-test, p>0.13 for all voltages).
as §1, with “S3.” for “S2.”, “THC” for “AEA”, “(B)” for “(B) Current-voltage”, “THC.” for “AEA.”, “5” for “7”, “p>0.23” for “p>0.13”

[2] = molecular target: T2, CB1 receptor (Homo sapiens, UniProt P21554); conditions: for mean time constant of deactivation: same oocyte at both potentials, 10 oocytes
T2 construct: expressed in transfected cells; host or cells: Xenopus laevis oocytes injected with cRNA; plasmid was a gift of Ken Mackie
T2 sequence (P21554 whole entry): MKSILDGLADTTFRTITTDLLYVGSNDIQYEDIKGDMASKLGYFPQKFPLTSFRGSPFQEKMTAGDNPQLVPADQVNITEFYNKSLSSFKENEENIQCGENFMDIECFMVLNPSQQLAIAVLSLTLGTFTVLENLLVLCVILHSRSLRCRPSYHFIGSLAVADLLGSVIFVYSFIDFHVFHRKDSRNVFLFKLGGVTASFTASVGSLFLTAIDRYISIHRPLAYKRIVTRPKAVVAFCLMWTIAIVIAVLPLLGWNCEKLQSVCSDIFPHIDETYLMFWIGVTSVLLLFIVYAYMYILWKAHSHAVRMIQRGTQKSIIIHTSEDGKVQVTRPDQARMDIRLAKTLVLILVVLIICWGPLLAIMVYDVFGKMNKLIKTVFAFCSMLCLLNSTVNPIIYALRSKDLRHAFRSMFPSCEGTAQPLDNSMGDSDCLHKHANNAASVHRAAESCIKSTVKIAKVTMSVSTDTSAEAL

[3] = molecular target: T2, CB1 receptor

(-)-Δ9-Tetrahydrocannabinol [THC]
effect of application on GIRK currents [1]: did not evoke GIRK currents or inhibited basal GIRK currents
direct effect on the GIRK channel [1]: do not have any direct effect

CCCCC/C=C\C/C=C\C/C=C\C/C=C\CCCC(=O)NCCO [AEA, anandamide]
effect of application on GIRK currents [1]: did not evoke GIRK currents or inhibited basal GIRK currents
direct effect on the GIRK channel [1]: do not have any direct effect

CCCCC/C=C\C/C=C\C/C=C\C/C=C\CCCC(=O)OC(CO)CO [2-AG, 2-Arachidonoylglycerol]
mean time constant of deactivation ([2]; +40 mV): 42.6 ± 19.8
dissociation time constant from the receptor (decay of GIRK current after washout) ([2]; -80 mV, both agonists in the same oocytes, n = 20, mean±SD): 30.4 ± 11.7 s
mean time constant of deactivation ([2]; -80 mV): 25.4 ± 14.9
effect of application on GIRK currents [1]: did not evoke GIRK currents or inhibited basal GIRK currents
direct effect on the GIRK channel [1]: do not have any direct effect
enhancement of potency toward the CB1 receptor by depolarization ([3]; +40 mV versus -80 mV): about 4 fold
V50 (the voltage that shows half-maximal effect), Boltzmann fit ([3]; relative activation by 100 nM agonist, -80 mV to +40 mV): −45 mV
